Experimental data published in article PMC8550792, “Evolution of kinase polypharmacology across HSP90 drug discovery” (Cell Chemical Biology, 2021).

How the values were obtained:
Assay in all cases: biochemical
Type in all cases: biochemical
382 unique human kinases [1] = target: T1, 382 unique human kinases (Homo sapiens, UniProt P19525); conditions: kinase EIF2AK2, compound 10 uM; for remaining activity at 10 µM: read-out: % Enzyme Activity (relative to DMSO controls)
T1 construct: purchased Reaction Biology (HotSpot contract assay)

382 unique human kinases [2] = target: T2, 382 unique human kinases (Homo sapiens, UniProt Q05397); conditions: kinase FAK/PTK2, compound 10 uM; for remaining activity at 10 µM: read-out: % Enzyme Activity (relative to DMSO controls)
T2 construct: purchased Reaction Biology (HotSpot contract assay)

382 unique human kinases [3] = target: T3, 382 unique human kinases (Homo sapiens, UniProt Q8WXR4); conditions: kinase MYO3b, compound 10 uM; for remaining activity at 10 µM: read-out: % Enzyme Activity (relative to DMSO controls)
T3 construct: purchased Reaction Biology (HotSpot contract assay)
T3 sequence (Q8WXR4 1-1341): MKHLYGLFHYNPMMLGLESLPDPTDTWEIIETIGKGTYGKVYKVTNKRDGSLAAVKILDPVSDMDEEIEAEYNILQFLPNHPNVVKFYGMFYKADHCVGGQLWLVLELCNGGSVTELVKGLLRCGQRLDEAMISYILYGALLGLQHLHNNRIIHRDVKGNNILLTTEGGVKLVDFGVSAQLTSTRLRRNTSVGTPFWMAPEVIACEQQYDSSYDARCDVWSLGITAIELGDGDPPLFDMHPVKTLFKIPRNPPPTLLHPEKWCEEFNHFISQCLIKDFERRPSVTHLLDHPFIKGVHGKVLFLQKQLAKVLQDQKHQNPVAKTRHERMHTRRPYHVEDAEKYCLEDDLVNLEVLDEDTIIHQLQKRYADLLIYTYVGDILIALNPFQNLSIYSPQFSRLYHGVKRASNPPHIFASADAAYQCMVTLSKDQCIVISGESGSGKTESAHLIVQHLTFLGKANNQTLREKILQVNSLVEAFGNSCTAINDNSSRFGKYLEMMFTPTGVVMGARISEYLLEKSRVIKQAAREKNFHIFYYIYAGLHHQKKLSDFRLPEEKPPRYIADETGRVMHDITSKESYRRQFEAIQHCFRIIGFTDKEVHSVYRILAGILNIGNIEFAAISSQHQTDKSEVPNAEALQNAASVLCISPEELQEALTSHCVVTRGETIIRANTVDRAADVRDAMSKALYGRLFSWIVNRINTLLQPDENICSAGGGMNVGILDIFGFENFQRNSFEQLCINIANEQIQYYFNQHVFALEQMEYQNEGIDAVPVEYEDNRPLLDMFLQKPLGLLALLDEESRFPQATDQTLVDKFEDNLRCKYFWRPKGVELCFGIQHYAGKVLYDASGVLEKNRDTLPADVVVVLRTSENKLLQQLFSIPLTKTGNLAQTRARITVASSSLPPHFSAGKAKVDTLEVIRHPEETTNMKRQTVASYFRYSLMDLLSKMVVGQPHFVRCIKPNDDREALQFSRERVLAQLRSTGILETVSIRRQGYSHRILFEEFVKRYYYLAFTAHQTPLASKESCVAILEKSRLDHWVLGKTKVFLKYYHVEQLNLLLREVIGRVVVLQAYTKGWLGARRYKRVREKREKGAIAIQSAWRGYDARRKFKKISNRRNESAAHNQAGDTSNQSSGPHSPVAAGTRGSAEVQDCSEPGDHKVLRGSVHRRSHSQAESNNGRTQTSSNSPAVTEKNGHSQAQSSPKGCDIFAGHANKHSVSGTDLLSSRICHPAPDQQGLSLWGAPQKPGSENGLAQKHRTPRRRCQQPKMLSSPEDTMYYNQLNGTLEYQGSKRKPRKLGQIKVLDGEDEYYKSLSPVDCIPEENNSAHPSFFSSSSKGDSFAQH

382 unique human kinases [4] = target: T4, 382 unique human kinases (Homo sapiens, UniProt P00533, L861Q); conditions: kinase EGFR (L861Q), compound 10 uM; for remaining activity at 10 µM: read-out: % Enzyme Activity (relative to DMSO controls)
T4 construct: purchased Reaction Biology (HotSpot contract assay)

382 unique human kinases [5] = target: T5, 382 unique human kinases (Homo sapiens, UniProt P21802, N549H); conditions: kinase FGFR2 (N549H), compound 10 uM; for remaining activity at 10 µM: read-out: % Enzyme Activity (relative to DMSO controls)
T5 construct: purchased Reaction Biology (HotSpot contract assay)

382 unique human kinases [6] = target: T6, 382 unique human kinases (Homo sapiens, UniProt Q86Y07); conditions: kinase VRK2, compound 10 uM; for remaining activity at 10 µM: read-out: % Enzyme Activity (relative to DMSO controls)
T6 construct: purchased Reaction Biology (HotSpot contract assay)

382 unique human kinases [7] = target: T7, 382 unique human kinases (Homo sapiens, UniProt P08581, Y1230D); conditions: c-MET (Y1230D), compound at 10 uM, duplicate values; for remaining activity at 10 µM: read-out: % Enzyme Activity (relative to DMSO controls)
T7 construct: purchased Reaction Biology (HotSpot contract assay)

382 unique human kinases [8] = target: T8, 382 unique human kinases (Homo sapiens, UniProt Q13177); conditions: PAK2, 10 uM; for remaining activity at 10 µM: read-out: % Enzyme Activity (relative to DMSO controls)
T8 construct: purchased Reaction Biology (HotSpot contract assay)

382 unique human kinases [9] = target: T9, 382 unique human kinases (Homo sapiens, UniProt P00533, G719D); conditions: EGFR (G719D), 10 uM; for remaining activity at 10 µM: read-out: % Enzyme Activity (relative to DMSO controls)
T9 construct: purchased Reaction Biology (HotSpot contract assay)

382 unique human kinases [10] = target: T10, 382 unique human kinases (Homo sapiens, UniProt P10721, V559D); conditions: c-Kit (V559D), [ATP] 20 µM, compound 10 uM; for remaining activity at 10 µM: read-out: % Enzyme Activity (relative to DMSO controls)
T10 construct: purchased Reaction Biology (HotSpot contract assay)
T10 sequence (P10721 26-976 V559D): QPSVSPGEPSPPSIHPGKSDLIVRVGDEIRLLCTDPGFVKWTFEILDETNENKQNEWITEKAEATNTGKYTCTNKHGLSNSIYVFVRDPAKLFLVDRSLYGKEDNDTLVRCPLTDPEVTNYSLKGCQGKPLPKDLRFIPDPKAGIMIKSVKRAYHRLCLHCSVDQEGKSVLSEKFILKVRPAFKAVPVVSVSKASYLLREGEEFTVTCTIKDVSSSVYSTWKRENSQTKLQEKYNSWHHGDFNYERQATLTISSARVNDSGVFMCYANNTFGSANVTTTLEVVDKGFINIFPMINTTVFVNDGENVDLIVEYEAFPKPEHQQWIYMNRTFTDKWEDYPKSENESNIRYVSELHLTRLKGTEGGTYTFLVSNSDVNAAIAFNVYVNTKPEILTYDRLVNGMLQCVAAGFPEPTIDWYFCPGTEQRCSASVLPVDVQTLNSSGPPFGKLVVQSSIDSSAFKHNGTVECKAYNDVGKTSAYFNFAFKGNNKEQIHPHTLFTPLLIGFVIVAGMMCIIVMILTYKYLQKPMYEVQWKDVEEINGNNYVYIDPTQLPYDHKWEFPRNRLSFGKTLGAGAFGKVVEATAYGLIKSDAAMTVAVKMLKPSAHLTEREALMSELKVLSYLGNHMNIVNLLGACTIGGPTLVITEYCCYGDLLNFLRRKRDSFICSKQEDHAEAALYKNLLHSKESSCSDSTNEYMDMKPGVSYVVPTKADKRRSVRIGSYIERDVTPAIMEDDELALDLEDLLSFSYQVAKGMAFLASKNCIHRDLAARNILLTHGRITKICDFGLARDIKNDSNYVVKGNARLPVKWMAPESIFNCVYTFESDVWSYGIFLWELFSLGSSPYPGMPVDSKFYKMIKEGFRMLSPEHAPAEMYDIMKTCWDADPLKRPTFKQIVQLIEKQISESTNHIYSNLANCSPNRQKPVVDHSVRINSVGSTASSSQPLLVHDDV

T5 sequence (P21802 22-821 N549H): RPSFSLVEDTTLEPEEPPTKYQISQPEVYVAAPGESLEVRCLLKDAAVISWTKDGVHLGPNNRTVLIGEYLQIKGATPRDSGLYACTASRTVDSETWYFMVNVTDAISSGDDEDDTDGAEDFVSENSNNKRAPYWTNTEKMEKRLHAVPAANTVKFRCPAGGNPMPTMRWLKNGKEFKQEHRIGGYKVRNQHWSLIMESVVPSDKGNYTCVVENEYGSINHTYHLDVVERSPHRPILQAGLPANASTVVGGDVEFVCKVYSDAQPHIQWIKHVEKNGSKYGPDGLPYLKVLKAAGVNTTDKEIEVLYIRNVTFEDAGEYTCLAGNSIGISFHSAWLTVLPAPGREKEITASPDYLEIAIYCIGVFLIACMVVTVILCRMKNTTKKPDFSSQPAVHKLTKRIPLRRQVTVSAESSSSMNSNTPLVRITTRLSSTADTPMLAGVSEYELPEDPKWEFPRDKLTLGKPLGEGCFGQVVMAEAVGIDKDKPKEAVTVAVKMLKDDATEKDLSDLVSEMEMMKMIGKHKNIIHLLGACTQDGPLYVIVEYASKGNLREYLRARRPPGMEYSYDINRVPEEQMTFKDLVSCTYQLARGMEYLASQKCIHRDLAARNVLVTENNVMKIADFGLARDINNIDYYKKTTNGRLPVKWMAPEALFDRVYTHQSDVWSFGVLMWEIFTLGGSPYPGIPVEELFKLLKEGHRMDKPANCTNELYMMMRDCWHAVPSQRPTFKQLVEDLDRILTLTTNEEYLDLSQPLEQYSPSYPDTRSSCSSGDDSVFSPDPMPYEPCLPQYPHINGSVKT
T8 sequence (Q13177 whole entry): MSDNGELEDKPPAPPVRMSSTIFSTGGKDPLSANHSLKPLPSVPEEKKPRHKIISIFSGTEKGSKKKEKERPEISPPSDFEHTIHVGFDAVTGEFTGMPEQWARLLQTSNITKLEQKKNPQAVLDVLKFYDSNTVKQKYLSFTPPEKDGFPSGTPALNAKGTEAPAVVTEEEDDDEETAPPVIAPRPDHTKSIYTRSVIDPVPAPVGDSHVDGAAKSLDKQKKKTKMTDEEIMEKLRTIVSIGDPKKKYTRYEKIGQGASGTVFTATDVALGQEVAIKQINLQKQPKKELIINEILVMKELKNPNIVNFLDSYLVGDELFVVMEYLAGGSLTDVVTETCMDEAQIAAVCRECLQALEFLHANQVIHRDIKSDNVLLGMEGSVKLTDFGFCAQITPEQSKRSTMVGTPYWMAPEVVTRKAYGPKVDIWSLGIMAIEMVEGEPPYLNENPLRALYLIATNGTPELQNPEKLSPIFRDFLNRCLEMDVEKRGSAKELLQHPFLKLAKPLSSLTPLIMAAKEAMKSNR
T1 sequence (P19525 whole entry): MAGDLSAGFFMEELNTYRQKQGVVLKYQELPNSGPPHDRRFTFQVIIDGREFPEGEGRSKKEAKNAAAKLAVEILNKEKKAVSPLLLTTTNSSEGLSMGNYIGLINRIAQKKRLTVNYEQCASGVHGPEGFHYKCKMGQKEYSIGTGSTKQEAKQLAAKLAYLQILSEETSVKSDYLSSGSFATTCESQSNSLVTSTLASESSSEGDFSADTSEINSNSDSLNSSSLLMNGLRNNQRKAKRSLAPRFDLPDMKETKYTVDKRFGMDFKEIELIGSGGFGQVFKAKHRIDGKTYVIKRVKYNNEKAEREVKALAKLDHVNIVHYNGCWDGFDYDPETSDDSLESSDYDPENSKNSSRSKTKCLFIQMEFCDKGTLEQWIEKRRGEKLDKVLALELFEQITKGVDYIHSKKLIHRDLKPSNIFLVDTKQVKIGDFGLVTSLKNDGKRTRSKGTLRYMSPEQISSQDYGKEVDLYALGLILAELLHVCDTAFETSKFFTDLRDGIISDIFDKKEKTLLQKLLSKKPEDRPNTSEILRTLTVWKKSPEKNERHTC
T6 sequence (Q86Y07 whole entry): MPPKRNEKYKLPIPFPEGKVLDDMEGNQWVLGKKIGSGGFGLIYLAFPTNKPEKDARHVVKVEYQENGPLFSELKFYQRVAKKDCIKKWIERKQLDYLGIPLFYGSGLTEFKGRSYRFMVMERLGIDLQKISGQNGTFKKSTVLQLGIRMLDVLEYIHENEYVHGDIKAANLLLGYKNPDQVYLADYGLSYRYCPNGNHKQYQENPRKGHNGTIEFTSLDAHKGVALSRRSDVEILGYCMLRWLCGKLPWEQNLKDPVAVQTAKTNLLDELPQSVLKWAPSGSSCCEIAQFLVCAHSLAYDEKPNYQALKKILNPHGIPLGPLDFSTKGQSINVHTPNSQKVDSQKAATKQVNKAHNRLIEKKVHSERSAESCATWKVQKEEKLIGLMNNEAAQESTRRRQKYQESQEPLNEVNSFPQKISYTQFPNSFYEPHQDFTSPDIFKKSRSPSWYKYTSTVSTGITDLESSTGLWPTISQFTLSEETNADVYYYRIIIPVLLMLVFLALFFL
T2 sequence (Q05397 whole entry): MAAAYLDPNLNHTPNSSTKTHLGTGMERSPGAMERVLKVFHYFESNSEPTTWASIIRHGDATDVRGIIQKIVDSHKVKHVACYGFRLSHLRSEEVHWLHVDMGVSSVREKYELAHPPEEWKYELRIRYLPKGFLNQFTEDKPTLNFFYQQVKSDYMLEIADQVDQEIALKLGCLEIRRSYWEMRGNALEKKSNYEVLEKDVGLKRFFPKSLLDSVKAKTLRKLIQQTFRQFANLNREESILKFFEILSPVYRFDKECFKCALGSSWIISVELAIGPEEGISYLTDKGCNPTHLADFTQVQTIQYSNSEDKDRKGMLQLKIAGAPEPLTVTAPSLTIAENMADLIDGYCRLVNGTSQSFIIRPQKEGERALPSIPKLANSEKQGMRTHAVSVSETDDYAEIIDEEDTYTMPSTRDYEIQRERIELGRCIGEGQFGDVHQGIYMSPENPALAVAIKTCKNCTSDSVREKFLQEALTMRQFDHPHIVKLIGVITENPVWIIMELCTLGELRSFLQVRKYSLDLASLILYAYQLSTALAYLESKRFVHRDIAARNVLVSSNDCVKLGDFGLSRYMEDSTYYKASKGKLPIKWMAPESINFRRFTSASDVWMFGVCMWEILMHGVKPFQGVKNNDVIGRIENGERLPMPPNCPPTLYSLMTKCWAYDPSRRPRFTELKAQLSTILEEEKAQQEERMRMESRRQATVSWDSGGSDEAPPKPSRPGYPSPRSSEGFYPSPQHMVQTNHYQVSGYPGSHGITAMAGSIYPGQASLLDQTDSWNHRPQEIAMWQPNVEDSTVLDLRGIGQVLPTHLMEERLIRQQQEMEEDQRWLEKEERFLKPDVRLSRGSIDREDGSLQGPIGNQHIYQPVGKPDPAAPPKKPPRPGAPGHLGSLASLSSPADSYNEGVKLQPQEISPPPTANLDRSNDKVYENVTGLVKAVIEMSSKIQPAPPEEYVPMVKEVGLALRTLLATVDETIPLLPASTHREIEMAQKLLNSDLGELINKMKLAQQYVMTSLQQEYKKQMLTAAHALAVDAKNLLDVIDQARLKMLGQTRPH

SMILES	remaining activity at 10 µM (382 unique human kinases [1])	remaining activity at 10 µM (382 unique human kinases [2])	remaining activity at 10 µM (382 unique human kinases [3])	remaining activity at 10 µM (382 unique human kinases [4])	remaining activity at 10 µM (382 unique human kinases [5])	remaining activity at 10 µM (382 unique human kinases [6])	remaining activity at 10 µM (382 unique human kinases [7])	% Enzyme Activity (relative to DMSO controls) (382 unique human kinases [8])	remaining activity at 10 µM (382 unique human kinases [8])	% Enzyme Activity (relative to DMSO controls) (382 unique human kinases [9])	remaining activity at 10 µM (382 unique human kinases [9])	% Enzyme Activity (relative to DMSO controls) (382 unique human kinases [10])	remaining activity at 10 µM (382 unique human kinases [10])	% Enzyme Activity (relative to DMSO controls) (382 unique human kinases [1])	% Enzyme Activity (relative to DMSO controls) (382 unique human kinases [2])	% Enzyme Activity (relative to DMSO controls) (382 unique human kinases [3])	% Enzyme Activity (relative to DMSO controls) (382 unique human kinases [4])	% Enzyme Activity (relative to DMSO controls) (382 unique human kinases [5])	% Enzyme Activity (relative to DMSO controls) (382 unique human kinases [6])	% Enzyme Activity (relative to DMSO controls) (382 unique human kinases [7])
CC(C)c1cc(-c2n[nH]c(=O)n2-c2ccc3c(ccn3C)c2)c(O)cc1O [Ganetespib (STA9090)]	90.5%	91.3%	88.2%	90.9%	79.3%	91.2%	109%	–	–	–	–	–	–	–	–	–	–	–	–	–
CCNC(=O)c1noc(-c2cc(C(C)C)c(O)cc2O)c1-c1ccc(CN2CCOCC2)cc1 [Luminespib]	–	–	–	–	–	–	–	99.27%	99.3%	97.19%	99%	69.57%	69.6%	–	–	–	–	–	–	–
CCNC(=O)c1noc(-c2cc(C(C)C)c(O)cc2O)c1-c1ccc(CN2CCOCC2)cc1 [Luminespib (AUY-922)]	108%	98%	113%	104%	107%	102%	110%	–	–	–	–	–	–	107.07%	96.62%	111.45%	100.91%	106.42%	100.26%	109.18%
CC(C)c1cc(-c2n[nH]c(=O)n2-c2ccc3c(ccn3C)c2)c(O)cc1O [Ganetespib]	–	–	–	–	–	–	–	–	99.6%	–	104%	–	40.7%	–	–	–	–	–	–	–
